Data set [1] is described as follows: pH stability in pH=4.1 sodium acetate buffer, analyzed by LC-MS. As to conditions: 100 mg in 10 mL pH=4.1 sodium acetate buffer, ambient temperature, 48 hours. The class given is physicochemical. How it is done: A solution was prepared by dissolving 100 mg of N-(2-Piperidin-1-yl-ethyl)-succinamic acid 2,6-diisopropylphenyl ester hydrochloride in 10 mL of pH=4.1 sodium acetate buffer. The buffer was prepared by adding NaOH to a 20% aqueous acetic acid solution until the desired pH was reached. The solution was incubated at ambient temperature and analyzed by LC-MS after 48 hours.

A further data set relates to Female mice. In words: In-vivo induction of anesthesia (graded sedation level after IP injection). The method, then: Prodrugs were formulated as aqueous isotonic solutions at pH 7.4 in sterile water before administration to animals. Female mice were obtained from Charles River Laboratories (Wilmington, Mass.). The volume of injection was set at […] and animals were dosed IP at 100 mg/kg, 125 mg/kg, 150 mg/kg and 200 mg/kg. The monitoring of distinguishable levels of sedation started immediately after an injection and was continued for a 2-h period post-injection. The sedation level was graded according to the behavioral and reflex activity of animals injected with progressively increasing doses of each compound. Animals were graded as alert and normal when there was no observable change in their behavior; alert with decreased motor activity when ataxia with some ability to walk was observed; and awake and recumbent when loss of righting reflex occurred. Animals reaching somnolence but retaining response to painful stimuli (toe or tail pinch) were graded as sedated with normal reflexes, whereas animals that lost response to painful stimuli were graded as sedated with decreased reflexes (anesthetic level of sedation). Death resulting from the overdose was also recorded as a last level.

As to `CC(C)c1cccc(C(C)C)c1OC(=O)CCC(=O)NCCN1CCCCC1.Cl` [N-(2-piperidin-1-yl-ethyl)-succinamic acid 2,6-diisopropylphenyl ester hydrochloride], in data set [1], the Decomposition in solution entry was “No trace of decomposition”. In addition, in the data set with Female mice (100 mg/kg), the Duration of anesthesia was determined as 11 min and the Full anesthesia result is “not reached”. Also, in the data set with Female mice (100 mg/kg, time post injection), the “End of effect (time post injection, in parentheses)” value is 13 min and the Onset of sedation is 2 min. In the data set with Female mice (125 mg/kg), the Duration of sedation came out at 13 min and the Full anesthesia result is “not reached”. Further, in the data set with Female mice (125 mg/kg, time post injection), the “End of sedation (time post injection, in parentheses)” value came to 15 min and the Onset of sedation was determined as 2 min. In addition, the Duration of anesthesia in the data set on Female mice (200 mg/kg) is 12 min. Further, in the data set with Female mice (200 mg/kg, time post injection), the “End of anesthesia (time post injection, in parentheses)” value (“End of anesthesia” for short) was 16 min; the Full anesthesia is 5 min; the Onset of sedation came out at 2 min.

As to `CC(C)c1cccc(C(C)C)c1OC(=O)CCC(=O)NCCN1CCCC1.Cl` [N-(2-pyrrolidin-1-yl-ethyl)-succinamic acid 2,6-diisopropylphenyl ester hydrochloride], the Duration of anesthesia with Female mice (150 mg/kg) is 10 min. Moreover, in the data set with Female mice (150 mg/kg, time post injection), the “End of anesthesia” value was determined as 14 min; the Full anesthesia came out at 4 min; the Onset of sedation amounted to 2 min. Moreover, the Duration of anesthesia in the data set on Female mice (200 mg/kg) stood at 21 min. Moreover, in the data set with Female mice (200 mg/kg, time post injection), the “End of anesthesia” value was 25 min; the Full anesthesia came to 4 min; the Onset of sedation came out at 2 min.
